Assay [1] addresses T1, MYT1 protein (Homo sapiens (Human), UniProt Q99640). As to the kind of experiment: Test for binding to ATP binding site of MYT1 (Kinase Tracer 178 / Eu-Anti-GST antibody TR-FRET). Particulars: ATP binding site of MYT1, 30 minutes at room temperature. For orientation: In TR-FRET formats the signal depends on donor and acceptor labels being close together.
For the next assay, the system named is LU65. Kind of assay: Cytotoxicity test with pemetrexed upon addition of each example compound (CellTiter-Glo). Particulars: combination with pemetrexed, LU65 cells, 7 days; maximum value, at the MYT1 inhibitor and pemetrexed concentrations. In kind it is cell-based, human. The procedure: LU65 (received from human tissue bank (JCRB Cell Bank)) was used in the evaluation of the present invention. LU65 is a lung cancer cell line having a truncated deletion mutation of S82* in RB1 gene (see Nature. 2019 May; 569(7757): 503-508. (Non Patent Literature 22)), in which the function of RB1 is decreased. The cell culture was carried out using RPMI-1640 (manufactured by SIGMA) containing 10% FBS (manufactured by SIGMA).
Each pemetrexed (manufactured by Tokyo Kasei Kogyo Co., Ltd.) and each example compound of each concentration were diluted using a DMSO solution, and 0.04 μL of each of series of dilution and DMSO was added to each well of cell culture plate using Echo 555 Liquid Handler (manufactured by Beckman Coulter Inc.). 1000 LU65 cells ([…]) were added to each well, which was cultured at 37° C. in a 5% CO2 incubator for 7 days. Intracellular ATP level which is a cell survival marker was measured and used in the monitoring of cell number. After culturing, 20 μL of CellTiter-Glo (registered trademark) 2.0 (manufactured by Promega) was added to each well, and the emission intensity was measured using Multimode Plate Reader En Vision (registered trademark) Xcite (manufactured by PerkinElmer). The cell survival rate under each condition was calculated by setting the value obtained by subtracting the luminescence of the cell unseeded well from the luminescence of the DMSO-added well as 100%, and calculating the proportion of a value obtained by subtracting the luminescence of the cell unseeded well from the luminescence detected at each well.
In addition, the cytotoxic activity under each condition was calculated by subtracting the survival rate in a combination of pemetrexed of each treatment concentration and each example compound of each treatment concentration, from 100%.
For orientation: In ATP-based viability assays light output follows the ATP content of the culture.

Assay [2] deals with T1, MYT1 protein. As to the kind of experiment: MYT1 kinase activity inhibition test (ELISA, phosphorylation of Y15 of CDK1). Type of assay: biochemical. Particulars: phosphorylation level of Y15 of CDK1 protein caused by MYT1 protein, 60 minutes. As to the method: The MYT1 kinase activity inhibitory capacity of each compound was evaluated by evaluating the phosphorylation level of Y15 of CDK1 protein caused by MYT1 protein, by ELISA. The kit of CycLex Weel Kinase Assay/Inhibitor Screening Kit Ver. 3 (manufactured by MBL, CY-1172V3) was used. Using Kinase Buffer, 10 μL of 5 nM MYT1 protein (manufactured by Carna Biosciences, Inc.) was prepared. In addition, 30 μL of 83.3 μM of ATP was prepared using Kinase Buffer. In addition, 10 μL of each compound was diluted to each concentration using Kinase Buffer. 30 μL of ATP was added to the plate of the kit, and thereafter, 10 μL of each compound was added thereto. Further, 10 μL of the diluted MYT1 protein solution was added thereto, and then the mixture was mixed, which was allowed to stand at room temperature for 60 minutes. The reaction solution was removed from each well, and each well was washed using Wash Buffer. After Wash Buffer was removed, 100 μL of HRP conjugated Anti-phospho-tyrosine antibody was added to each well, which was allowed to stand at room temperature for 60 minutes. Thereafter, the reaction solution was removed from each well, and each well was washed using Wash Buffer. After Wash Buffer was removed, 100 μL of Substrate Reagent was added to each well, which was allowed to stand at room temperature for 8 minutes. Thereafter, 100 μL of Stop Solution (1 N sulfuric acid) was added to each well according to the manual. Absorbances at 450 nm and 590 nm were measured using Envision (manufactured by PerkinElmer). The phosphorylation level of CDK1 protein was evaluated for each well by subtracting the absorbance at 590 nm from the absorbance at 450 nm. The inhibition rate of each compound added at each concentration was calculated by setting the signal when the compound was not added as 100% and the signal when MYT1 protein was not added as 0%, and the calculation results of IC50 were shown in Table 4.
For orientation: An ELISA detects its analyte on a solid surface through an enzyme-linked reagent.

pIC50: −log10 of the molar value. Structures can show the parent of a compound that is named as a salt.

T1 sequence (Q99640 whole entry, the tested form may be a part): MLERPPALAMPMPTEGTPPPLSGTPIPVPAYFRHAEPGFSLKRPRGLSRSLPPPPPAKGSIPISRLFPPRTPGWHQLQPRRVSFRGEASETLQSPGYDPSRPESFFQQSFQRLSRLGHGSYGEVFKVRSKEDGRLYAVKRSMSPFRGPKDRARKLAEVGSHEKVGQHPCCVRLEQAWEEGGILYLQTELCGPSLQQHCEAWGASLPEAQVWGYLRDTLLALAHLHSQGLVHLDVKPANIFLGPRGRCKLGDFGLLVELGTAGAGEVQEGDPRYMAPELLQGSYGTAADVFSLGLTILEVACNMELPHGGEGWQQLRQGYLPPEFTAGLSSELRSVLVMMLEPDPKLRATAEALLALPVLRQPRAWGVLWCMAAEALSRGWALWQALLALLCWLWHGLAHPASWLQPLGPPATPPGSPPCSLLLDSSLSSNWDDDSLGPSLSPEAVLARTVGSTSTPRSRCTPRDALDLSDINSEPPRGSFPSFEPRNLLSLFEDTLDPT

The term pIC50 denotes the negative decadic logarithm of the IC50, by convention in mol/L. As for `N#C[C@H]1C[C@H](Oc2cc3c(-c4ccc(Cl)c5[nH]ncc45)c(N)c(=O)[nH]c3cc2Cl)C1` [Compound A12, (1r,3r)-3-[[3-Amino-7-chloro-4-(7-chloro-1H-indazol-4-yl)-2-oxo-1H-quinolin-6-yl]oxy]cyclobutane-1-carbonitrile], the negative-log IC50 (pIC50) at MYT1 protein [1] is 8.59. In addition, in the assay with LU65, the “Bliss Score (Max)” value stood at 61% and the “HSA Score (MAX)” value was determined as 70%.
`Nc1c(-c2ccc(Cl)c3[nH]ncc23)c2cc(Cl)c(Br)cc2[nH]c1=O` [Compound A27, 3-Amino-7-bromo-6-chloro-4-(7-chloro-1H-indazol-4-yl)-1H-quinolin-2-one]: the pIC50 on MYT1 protein [1] is 7.40; at MYT1 protein [2], 9.28.
With `Nc1c(-c2ccc(Cl)c3[nH]ncc23)c2cc(Cl)c(OC(F)F)cc2[nH]c1=O` [Compound A30, 3-Amino-6-chloro-4-(7-chloro-1H-indazol-4-yl)-7-(difluoromethoxy)-1H-quinolin-2-one], the negative logarithm of the IC50 (pIC50) was 7.37 at MYT1 protein [1] and 9.15 on MYT1 protein [2].
Taken in the same sequence, the figures for `Nc1c(-c2cc(F)cc3[nH]ncc23)c2cc(Cl)ccc2[nH]c1=O` [Compound A56, 3-Amino-6-chloro-4-(6-fluoro-1H-indazol-4-yl)-1H-quinolin-2-one] were 7.24 and 8.96.
Regarding `Nc1c(-c2ccc(F)c3[nH]ncc23)c2cc(Cl)ccc2[nH]c1=O` [Compound A57, 3-Amino-6-chloro-4-(7-fluoro-1H-indazol-4-yl)-1H-quinolin-2-one], the values for the negative logarithm of the IC50 (pIC50) at MYT1 protein [1] and against MYT1 protein [2] were 7.89 and 9.21, respectively.
Turning to `Cc1ccc(-c2c(N)c(=O)[nH]c3ccc(Cl)cc23)c2cn[nH]c12` [Compound A60, 3-Amino-6-chloro-4-(7-methyl-1H-indazol-4-yl)-1H-quinolin-2-one], the pIC50 was 8.15 on MYT1 protein [1] and 9.26 against MYT1 protein [2].
For the compound `Nc1c(-c2ccc(C(F)(F)F)c3[nH]ncc23)c2cc(Cl)ccc2[nH]c1=O` [Compound A61, 3-Amino-6-chloro-4-[7-(trifluoromethyl)-1H-indazol-4-yl]-1H-quinolin-2-one], the pIC50 at MYT1 protein [1] was 6.85; against MYT1 protein [2] it was 8.30.
The like results for `Nc1c(-c2cccc(O)c2)c2ccc3ccccc3c2[nH]c1=O` [Compound B2, 3-Amino-4-(3-hydroxyphenyl)-1H-benzo[h]quinolin-2-one] were, in that order, 7.66 and 8.40.
As to `N#Cc1cc2c(-c3cccc(O)c3)c(N)c(=O)[nH]c2c2ccccc12` [Compound B7, 3-Amino-4-(3-hydroxyphenyl)-2-oxo-1H-benzo[h]quinoline-6-carbonitrile], the pIC50 is 8.22 on MYT1 protein [1] and 8.24 against MYT1 protein [2].
As for `N#Cc1cc2c(-c3ccc(F)c4[nH]ncc34)c(N)c(=O)[nH]c2c2ccccc12` [Compound B26, 3-Amino-4-(7-fluoro-1H-indazol-4-yl)-2-oxo-1H-benzo[h]quinoline-6-carbonitrile], the pIC50 on MYT1 protein [1] is 8.00; on MYT1 protein [2] it was 9.43.
Take `Cc1cc2c(-c3ccc(F)c4[nH]ncc34)c(N)c(=O)[nH]c2c2ccccc12` [Compound B27, 3-Amino-4-(7-fluoro-1H-indazol-4-yl)-6-methyl-1H-benzo[h]quinolin-2-one]: the pIC50 is 8.14 at MYT1 protein [1] and 9.68 on MYT1 protein [2].
The like results for `CP(C)(=O)c1cc2c(-c3ccc(F)c4[nH]ncc34)c(N)c(=O)[nH]c2c2ccccc12` [Compound B31, 3-Amino-6-dimethylphosphoryl-4-(7-fluoro-1H-indazol-4-yl)-1H-benzo[h]quinolin-2-one] were, in that order, 7.72 and 9.49.
For `Nc1c(-c2ccc(F)c3[nH]ncc23)c2cc(Cl)c3ccccc3c2[nH]c1=O` [Compound B34, 3-Amino-6-chloro-4-(7-fluoro-1H-indazol-4-yl)-1H-benzo[h]quinolin-2-one], the figures for the pIC50 at MYT1 protein [1] and on MYT1 protein [2] were 7.48 and 9.07, respectively.
On to `Nc1c(-c2cccc(F)c2)c2ccc3ccccc3c2[nH]c1=O` [Compound B50, 3-Amino-4-(3-fluorophenyl)-1H-benzo[h]quinolin-2-one; hydrochloride], for which the pIC50 at MYT1 protein [1] was 6.12; against MYT1 protein [2], 6.68.
With `Nc1c(-c2cccc3[nH]ncc23)c2cc(Cl)c3ncccc3c2[nH]c1=O` [Compound C79, 3-Amino-6-chloro-4-(1H-indazol-4-yl)-1H-1,7-phenanthrolin-2-one], the negative-log IC50 (pIC50) is 7.96 on MYT1 protein [1] and 9.52 at MYT1 protein [2].
In the case of `Nc1c(-c2cccc(O)c2)c2ccc3ncccc3c2[nH]c1=O` [Compound C184, 3-Amino-4-(3-hydroxyphenyl)-1H-1,7-phenanthrolin-2-one; hydrobromide], the pIC50 on MYT1 protein [1] is 8.00; on MYT1 protein [2], above 8.34.
As for `Nc1c(-c2cccc3[nH]ncc23)c2ccc3ncccc3c2[nH]c1=O` [Compound C186, 3-Amino-4-(1H-indazol-4-yl)-1H-1,7-phenanthrolin-2-one], the values for the pIC50 on MYT1 protein [1] and at MYT1 protein [2] were 8.17 and 8.41, respectively.
In the case of `COc1cc2c(-c3ccc(F)c4[nH]ncc34)c(N)c(=O)[nH]c2c2cc(F)cnc12` [Compound F2, 3-Amino-9-fluoro-4-(7-fluoro-1H-indazol-4-yl)-6-methoxy-1H-1,7-phenanthrolin-2-one], at MYT1 protein [1], the pIC50 is 8.80. In the assay with LU65, the “Bliss Score (Max)” value stood at 86% and the “HSA Score (MAX)” value was 83%.
Take `Nc1c(-c2ccc(F)c3[nH]ncc23)c2cc(C3CC3)c3cnsc3c2[nH]c1=O` [Compound H3, 7-Amino-4-cyclopropyl-6-(7-fluoro-1H-indazol-4-yl)-9H-[1,2]thiazolo[4,5-h]quinolin-8-one]: the pIC50 at MYT1 protein [1] is 8.57. Further, in the assay with LU65, the “Bliss Score (Max)” value came out at 61% and the “HSA Score (MAX)” value turned out to be 61%.
The compound `Cc1nc2c(C)cc3c(-c4ccc(F)c5[nH]ncc45)c(N)c(=O)[nH]c3c2s1` [Compound K4, 7-Amino-6-(7-fluoro-1H-indazol-4-yl)-2,4-dimethyl-9H-[1,3]thiazolo[4,5-h]quinolin-8-one] showed a negative-log IC50 (pIC50) at MYT1 protein [1] of 8.57. In addition, in the assay on LU65, the “Bliss Score (Max)” value worked out at 56% and the “HSA Score (MAX)” value was 66%.
The like results for `Nc1c(-c2ccc(F)c3[nH]ncc23)c2cc(C3CC3)c3ccsc3c2[nH]c1=O` [Compound L3, 7-Amino-4-cyclopropyl-6-(7-fluoro-1H-indazol-4-yl)-9H-thieno[3,2-h]quinolin-8-one] were, in that order, 8.64, 51% and 61%.
The like results for `Cn1cnc2c3[nH]c(=O)c(N)c(-c4ccc(F)c5[nH]ncc45)c3cc(C3CC3)c21` [Compound M4, 7-Amino-4-cyclopropyl-6-(7-fluoro-1H-indazol-4-yl)-3-methyl-9H-imidazo[4,5-h]quinolin-8-one] were, in that order, 7.72, 51% and 60%.
Taken in the same sequence, the figures for `Nc1c(-c2ccc(F)c3[nH]ncc23)c2cc(C3CC3)c3scnc3c2[nH]c1=O` [Compound N2, 7-Amino-4-cyclopropyl-6-(7-fluoro-1H-indazol-4-yl)-9H-[1,3]thiazolo[5,4-h]quinolin-8-one] were 8.48, 50% and 57%.
As to `Cc1nc2c(-c3ccc(F)c4[nH]ncc34)c(N)c(=O)[nH]c2c2cccnc12` [Compound O1, 3-Amino-4-(7-fluoro-1H-indazol-4-yl)-6-methyl-1H-pyrido[2,3-h][1,5]naphthyridin-2-one], on MYT1 protein [1], the negative-log IC50 (pIC50) is 8.96. In the assay with LU65, the “Bliss Score (Max)” value stood at 37% and the “HSA Score (MAX)” value amounted to 44%.
